The values below come from patent US9670211B2, “Aza-oxo-indoles for the treatment and prophylaxis of respiratory syncytial virus infection” (Hoffmann-La Roche Inc., priority 2013, dated 2017).

The subject of one assay is RSV Long strain. In words: Viral Cytopathic Effect (CPE) Assay. Format: cell-based. As to conditions: human respiratory syncytial virus, 144 h; RSV Long strain (ATCC), cell viability after 6 days by Cell Counting kit-8. As for the experimental part: Viral Cytopathic Effect (CPE) Assay
To measure anti-RSV activity of compounds, 96-well plates are seeded with 6×10^3 cells per well in Dulbecco's modified Eagle's medium (DMEM) containing 10% fetal bovine serum (FBS). Cells are infected the next day with sufficient RSV Long strain (ATCC) to produce an approximately 80-90% cytopathic effect after 6 days, in the presence of serial half-log diluted compound in a total volume of 200 μL per well. The viability of cells is assessed after 6 days using Cell Counting kit-8 (Dojindo Molecular Technologies). The absorbance at 450 nm and referenced at 630 nm is measured to determine 50% effective concentration (EC50).
For the molecule `O=C1N(Cc2nc3cc(Cl)ccc3n2C2CCC(O)CC2)c2cnccc2C12CC2` (stereo not drawn) [Example 2-7, 1′-{[5-Chloro-1-(4-hydroxycyclohexyl)-1H-benzimidazol-2-yl]methyl}spiro[cyclopropane-1,3′-pyrrolo[2,3-c]pyridin]-2′(1′H)-one], the 50% effective concentration (EC50) was 1.1 nM.
With `O=C1N(Cc2cc3cc(Cl)cnc3n2C2CCS(=O)(=O)C2)c2cnccc2C12CC2` (stereo not drawn) [Example 19, 1′-{[5-Chloro-1-(1,1-dioxidotetrahydrothiophen-3-yl)-1H-pyrrolo[2,3-b]pyridin-2-yl]methyl}spiro[cyclopropane-1,3′-pyrrolo[2,3-c]pyridin]-2′(1′H)-one], the EC50 stood at 6 nM.
On the same count and under the same terms, in the case of `O=C1N(Cc2nc3cc(Cl)ccc3n2C2C[S+]([O-])C2)c2cnccc2C12CC2` (stereo not drawn) [Example 5, 1′-{[5-Chloro-1-(1-oxidothietan-3-yl)-1H-benzimidazol-2-yl]methyl}spiro[cyclopropane-1,3′-pyrrolo[2,3-c]pyridin]-2′(1′H)-one] it was 5 nM; in that of `O=C1N(Cc2nc3cc(Cl)ccc3n2[C@H]2CC[C@@H](C(=O)O)CC2)c2cnccc2C12CC2` [Example 2-12, cis-4-{5-Chloro-2-[(2′-oxospiro[cyclopropane-1,3′-pyrrolo[2,3-c]pyridin]-1′(2′H)-yl)methyl]-1H-benzimidazol-1-yl}cyclohexanecarboxylic acid], 510 nM; in that of `O=C1N(Cc2nc3cc(Cl)ccc3n2C2CCS(=O)(=O)CC2)c2cnccc2C12CC2` [Example 2-2, 1′-{[5-Chloro-1-(1,1-dioxidotetrahydro-2H-thiopyran-4-yl)-1H-benzimidazol-2-yl]methyl}spiro[cyclopropane-1,3′-pyrrolo[2,3-c]pyridin]-2′(1′H)-one], 6 nM.
Still for that read-out and setting: for `O=C1N(Cc2nc3cc(Cl)ccc3n2C2CC(F)(F)C2)c2cnccc2C12CC2` [Example 2-5, 1′-{[5-Chloro-1-(3,3-difluorocyclobutyl)-1H-benzimidazol-2-yl]methyl}spiro[cyclopropane-1,3′-pyrrolo[2,3-c]pyridin]-2′(1′H)-one] the value was 16 nM; for `O=C1N(Cc2cc3cc(Cl)cc(F)c3n2C2CCS(=O)(=O)C2)c2cnccc2C12CC2` (stereo not drawn) [Example 17, 1′-{[5-Chloro-1-(1,1-dioxidotetrahydrothiophen-3-yl)-7-fluoro-1H-indol-2-yl]methyl}spiro[cyclopropane-1,3′-pyrrolo[2,3-c]pyridin]-2′(1′H)-one], 0.6 nM; for `O=C1N(Cc2cc3cc(Cl)ccc3n2C2CCS(=O)(=O)C2)c2cnccc2C12CC2` (stereo not drawn) [Example 18, 1′-{[5-Chloro-1-(1,1-dioxidotetrahydrothiophen-3-yl)-1H-indol-2-yl]methyl}spiro[cyclopropane-1,3′-pyrrolo[2,3-c]pyridin]-2′(1′H)-one], 1.9 nM.
The same measure, in the same setting: for `O=C1N(Cc2nc3cc(Cl)ccc3n2C(CO)CO)c2cnccc2C12CC2` [Example 2-16, 1′-{[5-Chloro-1-(1,3-dihydroxypropan-2-yl)-1H-benzimidazol-2-yl]methyl}spiro[cyclopropane-1,3′-pyrrolo[2,3-c]pyridin]-2′(1′H)-one] the value was 122 nM; for `O=C1N(Cc2nc3cc(Cl)ccc3n2[C@H]2C[C@H](O)C2)c2cnccc2C12CC2` [Example 14-2, 1′-{[5-Chloro-1-(trans-3-hydroxycyclobutyl)-1H-benzimidazol-2-yl]methyl}spiro[cyclopropane-1,3′-pyrrolo[2,3-c]pyridin]-2′(1′H)-one], 0.8 nM.
Consider `O=C1N(Cc2nc3cc(Cl)ccc3n2C2CNS(=O)(=O)C2)c2cnccc2C12CC2` (stereo not drawn) [Example 15, 1′-{[5-Chloro-1-(1,1-dioxido-1,2-thiazolidin-4-yl)-1H-benzimidazol-2-yl]methyl}spiro[cyclopropane-1,3′-pyrrolo[2,3-c]pyridin]-2′(1′H)-one], for which it took 1.6 nM to reach a half-maximal effect (EC50). This EC50 is about 2-fold higher than that of the molecule before.
Same read-out and setting: for `O=C1N(Cc2nc3cc(Cl)ccc3n2[C@@H]2CCS(=O)(=O)C2)c2cnccc2C12CC2` [Example 3-3, 1′-({5-Chloro-1-[(3R)-1,1-dioxidotetrahydrothiophen-3-yl]-1H-benzimidazol-2-yl}methyl)spiro[cyclopropane-1,3′-pyrrolo[2,3-c]pyridin]-2′(1′H)-one] the value was 1.6 nM.
Same read-out and setting: for `O=C1N(Cc2nc3cc(Cl)ccc3n2C2CS(=O)(=O)C2)c2cnccc2C12CC2` [Example 4-1, 1′-{[5-Chloro-1-(1,1-dioxidothietan-3-yl)-1H-benzimidazol-2-yl]methyl}spiro[cyclopropane-1,3′-pyrrolo[2,3-c]pyridin]-2′(1′H)-one] the value was 6.5 nM; for `O=C1N(Cc2nc3cc(Cl)cc(F)c3n2C2CS(=O)(=O)C2)c2cnccc2C12CC2` [Example 6, 1′-{[5-Chloro-1-(1,1-dioxidothietan-3-yl)-7-fluoro-1H-benzimidazol-2-yl]methyl}spiro[cyclopropane-1,3′-pyrrolo[2,3-c]pyridin]-2′(1′H)-one], 0.9 nM.
The same measure, in the same setting: for `O=C1CC(n2c(CN3C(=O)C4(CC4)c4ccncc43)nc3cc(Cl)ccc32)CCN1` (stereo not drawn) [Example 2-10, 1′-{[5-Chloro-1-(2-oxopiperidin-4-yl)-1H-benzimidazol-2-yl]methyl}spiro[cyclopropane-1,3′-pyrrolo[2,3-c]pyridin]-2′(1′H)-one] the value was 5 nM; for `O=C1N(Cc2nc3cc(Cl)ccc3n2C2CC3(C2)CS(=O)(=O)C3)c2cnccc2C12CC2` [Example 2-1, 1′-{[5-Chloro-1-(2,2-dioxido-2-thiaspiro[3.3]hept-6-yl)-1H-benzimidazol-2-yl]methyl}spiro[cyclopropane-1,3′-pyrrolo[2,3-c]pyridin]-2′(1′H)-one], 4 nM.
The molecule `O=C1N(Cc2nc3cc(Cl)cc(F)c3n2[C@H]2CCS(=O)(=O)C2)c2cnccc2C12CC2` [Example 9-1, 1′-({5-Chloro-1-[(3S)-1,1-dioxidotetrahydrothiophen-3-yl]-7-fluoro-1H-benzimidazol-2-yl}methyl)spiro[cyclopropane-1,3′-pyrrolo[2,3-c]pyridin]-2′(1′H)-one] showed an EC50 of 13 nM.

A further assay concerns RSV infection.
Assay: not given
As to conditions: intramuscularly at 15 mg/kg once a month for the duration of RSV season, selected infants; cited from earlier work.
As for “palivizumab: humanized monoclonal antibody against RSV fusion (F) protein approved for prophylaxis in high-risk infants”, the “reduction of hospitalization rate caused by RSV infection” value was 45-55%.
